Type in all cases: protein assay
In data set [1] the target is T1, Monoamine oxidase (Homo sapiens, UniProt P21397+P27338).
T1 sequence (P21397 whole entry): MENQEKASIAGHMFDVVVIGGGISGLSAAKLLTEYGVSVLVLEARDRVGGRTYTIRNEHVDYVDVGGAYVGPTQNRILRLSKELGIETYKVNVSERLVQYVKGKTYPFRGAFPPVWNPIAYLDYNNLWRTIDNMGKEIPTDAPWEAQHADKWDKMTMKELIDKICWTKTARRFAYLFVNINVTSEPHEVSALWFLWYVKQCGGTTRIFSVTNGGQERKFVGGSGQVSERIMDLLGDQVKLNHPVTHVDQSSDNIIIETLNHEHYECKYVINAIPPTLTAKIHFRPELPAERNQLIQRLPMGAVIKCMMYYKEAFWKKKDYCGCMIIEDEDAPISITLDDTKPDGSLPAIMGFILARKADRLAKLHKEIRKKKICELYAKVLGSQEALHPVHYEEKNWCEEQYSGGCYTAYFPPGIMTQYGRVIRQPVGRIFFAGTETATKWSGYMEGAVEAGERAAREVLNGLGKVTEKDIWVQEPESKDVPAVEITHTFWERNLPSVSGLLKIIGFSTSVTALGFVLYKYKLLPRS
T1 sequence (P27338 whole entry): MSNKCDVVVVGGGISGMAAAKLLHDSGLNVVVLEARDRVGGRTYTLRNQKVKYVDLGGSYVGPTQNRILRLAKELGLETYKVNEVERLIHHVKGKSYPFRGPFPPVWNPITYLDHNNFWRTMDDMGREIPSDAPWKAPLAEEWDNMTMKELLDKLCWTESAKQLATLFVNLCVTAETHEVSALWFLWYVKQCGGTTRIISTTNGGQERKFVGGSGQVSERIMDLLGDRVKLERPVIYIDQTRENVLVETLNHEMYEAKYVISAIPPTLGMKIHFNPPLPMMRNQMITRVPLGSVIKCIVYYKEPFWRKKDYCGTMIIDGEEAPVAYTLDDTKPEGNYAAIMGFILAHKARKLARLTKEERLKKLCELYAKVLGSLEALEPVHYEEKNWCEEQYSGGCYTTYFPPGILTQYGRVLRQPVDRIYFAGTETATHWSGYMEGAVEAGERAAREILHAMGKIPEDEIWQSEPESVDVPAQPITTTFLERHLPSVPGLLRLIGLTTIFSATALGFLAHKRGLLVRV
The experiment in a line: Evaluated for (Ki value) inactivation of Monoamine oxidase at saturation.

Data set [2] addresses T1, Monoamine oxidase. The experiment in a line: Evaluated for (Ki value) in competition with oxidation of benzylamine.
The target of data set [3] is T1, Monoamine oxidase. The experiment in a line: Kinetic parameter (Kcat value) was determined.
Data set [4] has as its target T1, Monoamine oxidase. The experiment in a line: Kinetic parameter (Km value) was determined.

On to `NC1(Cc2ccccc2)CC1`, for which the Ki at Monoamine oxidase [1] was found to be 480 µM; on Monoamine oxidase [2], 51 µM.
As usually defined, the Km is the substrate concentration at which the rate is half of its maximum. `NCC1(c2ccccc2)CC1` displayed a k cat on Monoamine oxidase [3] of 1.52 s⁻¹. The Ki on Monoamine oxidase [2] came out at 50 µM. Also, the Km at Monoamine oxidase [4] was 40 µM.

Values taken from ChEMBL document CHEMBL1123132, “1-Benzylcyclopropylamine and 1-(phenylcyclopropyl)methylamine: an inactivator and a substrate of monoamine oxidase” (J Med Chem, 1985).
